In ChEMBL document CHEMBL1126329, “Azasugar and glycal inhibitors of -L-fucosidase” (Bioorg Med Chem Lett, 1992):

target: T1, Tissue alpha-L-fucosidase (Homo sapiens) (UniProt P04066)
T1 sequence (whole entry): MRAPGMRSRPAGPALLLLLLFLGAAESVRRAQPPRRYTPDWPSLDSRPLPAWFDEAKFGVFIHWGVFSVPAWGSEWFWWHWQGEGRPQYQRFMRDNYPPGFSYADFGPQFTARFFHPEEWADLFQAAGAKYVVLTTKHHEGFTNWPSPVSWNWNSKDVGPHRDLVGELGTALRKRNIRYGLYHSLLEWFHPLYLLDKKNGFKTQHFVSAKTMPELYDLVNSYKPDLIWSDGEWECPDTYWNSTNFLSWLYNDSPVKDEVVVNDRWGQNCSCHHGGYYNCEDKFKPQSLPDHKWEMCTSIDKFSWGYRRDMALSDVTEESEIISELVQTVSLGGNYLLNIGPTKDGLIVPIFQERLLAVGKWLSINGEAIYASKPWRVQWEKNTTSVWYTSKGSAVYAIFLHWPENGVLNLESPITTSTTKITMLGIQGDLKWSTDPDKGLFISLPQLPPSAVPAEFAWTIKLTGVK
Description: Intecept inhibition constant against Alpha-Fucosidase; Noncompetitive inhibition

Row | Compound | Kii
1 | Oc1ccccc1 | 112 mM

target: T2, Tissue alpha-L-fucosidase (Homo sapiens, UniProt P04066); experiment: Inhibition constant against Alpha-Fucosidase; Uncompetitive inhibition
T2 sequence (P04066 whole entry): T1 sequence (whole entry)

Row | Compound | Ki
2 | C[C@H]1OC=C[C@@H](O)[C@H]1O (stereo in doubt; 19) | 35 mM
3 | CC(=O)C1C(O)C=COC1C (configuration not stated) | 26 mM
4 | C[C@H]1OC=C[C@@H](O)[C@H]1O (stereo in doubt; 24) | 23 mM
5 | OC1C=COC(c2ccccc2)C1O (stereo in doubt; 23) | 83 mM
6 | OC1C=COC(c2ccccc2)C1O (stereo in doubt; 25) | 22 mM

target: T1, Tissue alpha-L-fucosidase (Homo sapiens); remark: another data set of the same source
Description: Slope inhibition constant against Alpha-Fucosidase; Uncompetitive inhibition

Row | Compound | Kis
7 | Oc1ccccc1 | 0.18 mM

target: T2, Tissue alpha-L-fucosidase; experiment: Inhibition constant against Alpha-Fucosidase

Row | Compound | Ki
8 | CC1=COC(c2ccccc2)C(C)C1O (stereo in doubt; 26) | > 100 mM
9 | CC(=O)C1C(O)C=COC1c1ccccc1 (configuration not stated) | > 100 mM
10 | C[C@@H]1OC=C[C@@H](O)[C@@H]1O | 0.05 mM
11 | CC1=COC(c2ccccc2)C(C)C1O (stereo in doubt; 21) | > 100 mM
12 | OCC1NC(CO)C(O)C1O (configuration not stated) | 0.91 mM
13 | CC(=O)C1C(O)C=COC1C (configuration not stated) | 0.09 mM
14 | OC1C=COC(c2ccccc2)C1 (configuration not stated) | > 100 mM
15 | C[C@@H]1N[C@@H](CO)[C@H](O)[C@@H]1O | 0.004 mM
16 | OC1C=COC(c2ccccc2)C1OCc1ccccc1 (configuration not stated) | > 100 mM
17 | CN1CC(O)C(O)C(O)C1CO (configuration not stated) | 5.3 mM
